# Results published in publication PMC5552880, “The Bitter Taste Receptor TAS2R16 Achieves High Specificity and Accommodates Diverse Glycoside Ligands by using a Two-faced Binding Pocket” (Scientific Reports, 2017).
# Substitutions are numbered along the chain they refer to. Where two headings read alike, the source gives them in different places.
# Columns and labels:
# I21F TAS2R16 = molecular target: T1, I21F TAS2R16 (Homo sapiens, UniProt Q9NYV7, I21F); experiment: Ca2+ flux assay, mutation library clone I21F; type: cell-based; settings: 3 mM salicin, mean (range, max-min), n=3
# T1 construct: FLAG (N); expressed in transfected cells; host or cells: HEK-293T
# Protocol: (§1) The TAS2R16 mutation library was tested for function using a Ca^2+ flux assay as described previously. Later screens of individual TAS2R16 mutant clones used 4-nitrophenyl-β-D-glucopyranoside. Briefly, HEK-293T cells, in poly-lysine coated, black 384-well plates with clear bottoms (Costar), were transfected with the TAS2R16 mutation library, and a plasmid expressing a Gα16 chimera containing the last 44 amino acids of rat gustducin (Gα16gust44). Cells were incubated for 22 hours at 37 °C then washed twice with a calcium indicator dye in HBSS containing 20 mM HEPES (Calcium 4 Assay kit, Molecular Devices), incubated with HBSS for 1.5 hr, then moved to a Flexstation II-384 (Molecular Devices) set at 32 °C. […] Concentrations for mutation library screening were chosen to be approximately 2 to 3 times higher than the EC50 values for the ligands to maximize the sensitivity of detecting decreases in signaling due to the mutation in each clone.
# (§2) For Ca^2+ flux assays, the value of fluorescence at 30 seconds after ligand addition (the time of peak signal for wild-type TAS2R16) was used as the maximum value. […] Data sets were analyzed and represented as percentage over baseline signal. Mean and standard deviation values were calculated for each clone from replicate assay data.
# S108T TAS2R16 = molecular target: T2, S108T TAS2R16 (Homo sapiens, UniProt Q9NYV7, S108T); experiment: Ca2+ flux assay, mutation library clone S108T; type: cell-based; settings: library screening concentrations
# T2 construct: FLAG (N); expressed in transfected cells; host or cells: HEK-293T
# T2 sequence (Q9NYV7 1-291 S108T): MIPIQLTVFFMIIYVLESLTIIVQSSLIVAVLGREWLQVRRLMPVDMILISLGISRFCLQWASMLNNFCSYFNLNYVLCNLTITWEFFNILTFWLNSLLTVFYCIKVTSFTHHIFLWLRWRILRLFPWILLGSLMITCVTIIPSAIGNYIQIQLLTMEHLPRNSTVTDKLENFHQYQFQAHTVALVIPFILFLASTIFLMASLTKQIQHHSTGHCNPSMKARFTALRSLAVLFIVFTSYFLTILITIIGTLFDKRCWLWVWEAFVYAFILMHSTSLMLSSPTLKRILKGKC
# Protocol: as §1
# (§3) For Ca^2+ flux assays, the value of fluorescence at 30 seconds after ligand addition (the time of peak signal for wild-type TAS2R16) was used as the maximum value. […] Raw data obtained from surface expression and flux experiments were normalized to the values for wild-type TAS2R16 on each plate. Data sets were analyzed and represented as percentage over baseline signal. Mean and standard deviation values were calculated for each clone from replicate assay data.
# C58R TAS2R16 = molecular target: T3, C58R TAS2R16 (Homo sapiens, UniProt Q9NYV7, C58R); experiment: Ca2+ flux assay, mutation library clone C58R; type: cell-based; settings: 3 mM salicin, mean (range, max-min), n=3
# T3 construct: V5; expressed in transfected cells; host or cells: HEK-293T
# Protocol: as §1, §2
# L191R TAS2R16 = molecular target: T4, L191R TAS2R16 (Homo sapiens, UniProt Q9NYV7, L191R); experiment: Ca2+ flux assay, mutation library clone L191R; type: cell-based; settings: 3 mM salicin, mean (range, max-min), n=3
# T4 construct: Each construct in the mutation library was tested for full-length TAS2R16 translation; V5; expressed in transfected cells; host or cells: HEK-293T
# Protocol: as §1, §2
# W261A TAS2R16 = molecular target: T5, W261A TAS2R16 (Homo sapiens, UniProt Q9NYV7, W261A); experiment: Ca2+ flux assay, W261A TAS2R16 variant; type: cell-based
# T5 construct: FLAG (N); expressed in transfected cells; host or cells: HEK-293T
# T5 sequence (Q9NYV7 1-291 W261A): T2 sequence (Q9NYV7 1-291 S108T) with T108S, W261A
# Protocol: as §1, §3
# (§4) Ligand dose-response data was analyzed with Graphpad Prism 5 software. Data was baseline subtracted and then fit using a sigmoidal dose-response (variable slope) equation.
# Q60R TAS2R16 = molecular target: T6, Q60R TAS2R16 (Homo sapiens, UniProt Q9NYV7, Q60R); experiment: Ca2+ flux assay, mutation library clone Q60R; type: cell-based; settings: 3 mM salicin, mean (range, max-min), n=3
# T6 construct: V5; expressed in transfected cells; host or cells: HEK-293T
# Protocol: as §1, §2
# S228T TAS2R16 = molecular target: T7, S228T TAS2R16 (Homo sapiens, UniProt Q9NYV7, S228T); experiment: Ca2+ flux assay, mutation library clone S228T; type: cell-based; settings: library screening concentrations
# T7 construct: FLAG (N); expressed in transfected cells; host or cells: HEK-293T
# T7 sequence (Q9NYV7 1-291 S228T): T2 sequence (Q9NYV7 1-291 S108T) with T108S, S228T
# Protocol: as §1, §3
# L59P TAS2R16 = molecular target: T8, L59P TAS2R16 (Homo sapiens, UniProt Q9NYV7, L59P); experiment: Ca2+ flux assay, mutation library clone L59P; type: cell-based; settings: 3 mM salicin, mean (range, max-min), n=3
# T8 construct: Each construct in the mutation library was tested for full-length TAS2R16 translation; V5; expressed in transfected cells; host or cells: HEK-293T
# Protocol: as §1, §2
# TAS2R16 = settings: read-out: EC50, reported value; cited from earlier work
# S97R TAS2R16 = molecular target: T9, S97R TAS2R16 (Homo sapiens, UniProt Q9NYV7, S97R); experiment: Ca2+ flux assay, mutation library clone S97R; type: cell-based; settings: 3 mM salicin, mean (range, max-min), n=3
# T9 construct: Each construct in the mutation library was tested for full-length TAS2R16 translation; V5; expressed in transfected cells; host or cells: HEK-293T
# Protocol: as §1, §2
# D46A TAS2R16 = molecular target: T10, D46A TAS2R16 (Homo sapiens, UniProt Q9NYV7, D46A); experiment: Ca2+ flux assay, mutation library clone D46A; type: cell-based; settings: 3 mM salicin, mean (range, max-min), n=3
# T10 construct: FLAG (N); expressed in transfected cells; host or cells: HEK-293T
# Protocol: as §1, §2
# wild-type TAS2R16 = molecular target: T11, wild-type TAS2R16 (Homo sapiens, UniProt Q9NYV7); experiment: Ca2+ flux assay, HEK-293T cells expressing wild-type TAS2R16 and Gα16gust44; type: cell-based
# T11 construct: FLAG (N); expressed in transfected cells; host or cells: HEK-293T
# T11 sequence (Q9NYV7 1-291): T2 sequence (Q9NYV7 1-291 S108T) with T108S
# Protocol: as §1, §3, §4
# N96T TAS2R16 = molecular target: T12, N96T TAS2R16 (Homo sapiens, UniProt Q9NYV7, N96T); experiment: Ca2+ flux assay, N96T TAS2R16 variant; type: cell-based; settings: Fig. 7 dose-response
# T12 construct: FLAG (N); expressed in transfected cells; host or cells: HEK-293T
# Protocol: as §1, §2
# (§5) Ligand dose-response data was analyzed with Graphpad Prism 5 software. […]
# N96A TAS2R16 = molecular target: T13, N96A TAS2R16 (Homo sapiens, UniProt Q9NYV7, N96A); experiment: Ca2+ flux assay, N96A TAS2R16 variant; type: cell-based; settings: Fig. 7 dose-response
# T13 construct: FLAG (N); expressed in transfected cells; host or cells: HEK-293T
# Protocol: as §1, §2, §5
# T4 sequence (Q9NYV7 whole entry L191R): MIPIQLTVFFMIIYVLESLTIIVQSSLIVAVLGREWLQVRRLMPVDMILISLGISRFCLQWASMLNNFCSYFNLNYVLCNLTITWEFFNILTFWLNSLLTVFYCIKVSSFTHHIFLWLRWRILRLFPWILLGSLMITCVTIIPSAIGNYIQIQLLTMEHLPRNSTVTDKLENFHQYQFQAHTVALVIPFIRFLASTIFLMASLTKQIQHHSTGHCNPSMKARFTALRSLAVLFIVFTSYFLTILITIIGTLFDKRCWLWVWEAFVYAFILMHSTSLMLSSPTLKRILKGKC
# T10 sequence (Q9NYV7 whole entry D46A): as the sequence (Q9NYV7 whole entry L191R) above, with D46A, R191L counted along it
# T3 sequence (Q9NYV7 whole entry C58R): as the sequence (Q9NYV7 whole entry L191R) above, with C58R, R191L counted along it
# T12 sequence (Q9NYV7 whole entry N96T): as the sequence (Q9NYV7 whole entry L191R) above, with N96T, R191L counted along it
# T8 sequence (Q9NYV7 whole entry L59P): as the sequence (Q9NYV7 whole entry L191R) above, with L59P, R191L counted along it
# T9 sequence (Q9NYV7 whole entry S97R): as the sequence (Q9NYV7 whole entry L191R) above, with S97R, R191L counted along it
# T13 sequence (Q9NYV7 whole entry N96A): as the sequence (Q9NYV7 whole entry L191R) above, with N96A, R191L counted along it
# T6 sequence (Q9NYV7 whole entry Q60R): as the sequence (Q9NYV7 whole entry L191R) above, with Q60R, R191L counted along it
# T1 sequence (Q9NYV7 whole entry I21F): as the sequence (Q9NYV7 whole entry L191R) above, with I21F, R191L counted along it
compound,measurement,setting,value
OCc1ccccc1O[C@@H]1O[C@H](CO)[C@@H](O)[C@H](O)[C@H]1O [salicin],Ca2+ flux in response to salicin,I21F TAS2R16,9 (5) % of wild-type
same,Ca2+ flux signaling value,S108T TAS2R16,99 % of wild-type
same,Ca2+ flux in response to salicin,C58R TAS2R16,5 (2) % of wild-type
same,Ca2+ flux in response to salicin,L191R TAS2R16,1 (3) % of wild-type
same,EC50,"W261A TAS2R16; Fig. 5b dose-response, W261A TAS2R16",~13.4 mM
same,activation of W261A variant,"W261A TAS2R16; W261A TAS2R16, relative to wild-type",eliminated activation
same,Ca2+ flux in response to salicin,Q60R TAS2R16,4 (7) % of wild-type
same,Ca2+ flux signaling value,S228T TAS2R16,90 % of wild-type
same,Ca2+ flux in response to salicin,L59P TAS2R16,2 (3) % of wild-type
same,EC50,TAS2R16,3 mM
same,Ca2+ flux in response to salicin,S97R TAS2R16,0 (5) % of wild-type
same,Ca2+ flux in response to salicin,D46A TAS2R16,8 (9) % of wild-type
same,EC50,"wild-type TAS2R16; Fig. 5b dose-response, wild-type TAS2R16, read-out: EC50 (WT)",1.1 mM
same,EC50,"wild-type TAS2R16; Fig. 6 comparative dose-response, wild-type TAS2R16, read-out: EC50 (WT)",1.7 mM
same,EC50,"wild-type TAS2R16; Fig. 7 dose-response, wild-type TAS2R16, read-out: EC50 (WT)",5.5 mM
same,EC50,"wild-type TAS2R16; Fig. 2d dose-response, wild-type TAS2R16, HEK-293T, read-out: EC50",1.2 mM
same,activation of wild-type TAS2R16,"wild-type TAS2R16; wild-type TAS2R16, HEK-293T",robust receptor activation
same,EC50,N96T TAS2R16,800 µM
same,EC50,N96A TAS2R16,6.5 mM
